Data taken from US20050124589A1, “New use, pharmaceutical preparations as well as a process for their production” (priority 2003, published 2005).

Legend:
[1] = cited from earlier work
[2] = Physical storage stability of aqueous Ifosfamide concentrates with Mesna as solubility-enhancing agent; assay type: physicochemical; conditions: Mesna as solubility-enhancing agent in Ifosfamide concentrates
Experimental: The ratios refer to the proportions by weight of the substances in the solution. The solutions are homogenized, sterilized by filtration and filled under aseptic conditions. Production is carried out under nitrogen. These solutions can also be lyophilized in order to obtain a longer storage life of the pharmaceutical preparation. In addition to the auxiliary agents that are set forth in the examples, the solution can contain also further substances, e.g. sodium chloride, Mannitol, lactose, polyethylenglycol, ethanol, glucose, disaccharide, cyclodextrine.
In the manufacture, 90% of the Water for Injection is cooled to about 5° C. to 10° C., to which is dissolved the phosphate buffer; the Mesna is subsequently added and is homogeneously dissolved. […] The solution so obtained is brought to the specified weight with the cooled Water for Injection, sterile-filtered and filled in injection vials under aseptic conditions. Sterilization and filling are not carried out under cooling.
The making of Examples 4, 5 and 6 is carried out analogously to the description of Example 1.

Row | physical stabilization of Ifosfamide solution [2] | Compound | solubility in water (saturation concentration) ([1]; water, room temperature) | solubility of Ifosfamide lowered by addition of auxiliary agents ([1]; with auxiliary agents added)
1 |  | O=P1(NCCCl)OCCCN1CCCl (stereo not drawn) [Ifosfamide, 2-(chlorethylamino)-3-(2-chlorethyl)-tetrahydro-2H-1,3,2-oxazaphosphorin-2-oxide] | about 140 mg/mL | under 10 % (wt/vol)
2 | prevents crystallization | O=S(=O)(O)CCS [Mesna, mercaptoethane sulfonate-sodium] |  | 
